# Experiments:
# human TRPA1 ion channel = biological target: T1, human TRPA1 ion channel (Homo sapiens, UniProt O75762); experiment: Assay A: TRPA1 assay (FLIPRtetra, AITC-induced intracellular calcium); format: cell-based; conditions: HEK293 cell line over-expressing human TRPA1, AITC agonism (final 10 μM), AUC of calcium signal, read-out: hTRPA1 IC50
# T1 construct: host or cells: HEK293
# Procedure: A human HEK293 cell line over-expressing the human TRPA1 ion channel (Perkin Elmer, Product No. AX-004-PCL) is used as a test system for compound efficacy and potency. Compound activity is determined by measuring the effect of compounds on intracellular calcium concentration induced by AITC (Allylisothiocyanat) agonism in a FLIPRtetra system (Molecular Devices).
# The cells are obtained as frozen cells in cryo-vials and stored until use at −150° C.
# Cells are grown in culture medium (MEM/EBSS medium with 10% FCS and 0.4 mg/ML Geneticin). […] For sub-culturing cells are detached from flasks by Versene. At the day before the assay, cells are detached, washed twice with medium (MEM/EBSS medium with 10% FCS) and 20000 cells in 20 μl/well are seeded to Poly D-Lysin biocoated 384-well plates (black, clear bottom, Cat. 356697) from Corning. Plates are incubated for 24 hours at 37° C./5% C02 before use in the assay.
# The test compounds are dissolved in 100% DMSO at a concentration of 10 mM and in a first step diluted in DMSO to a concentration of 5 mM, followed by serial dilution steps in 100% DMSO. Dilution factor and number of dilution steps may vary according to needs. Typically 8 different concentrations by 1:5 dilutions are prepared, further intermediate dilutions (1:20) of the substances are carried out with HBSS/HEPES buffer (1×HEPES, Cat. 14065 from Gibco, 20 mM HEPES, Cat. 83264 from SIGMA, 0.1% BSA Cat. 11926 from Invitrogen, pH 7.4
# At the assay day cells are washed 3× with assay puffer, 20 μL buffer remaining in the wells after washing. 10 μL Ca6 kit (Cat. R8191 Molecular Devices) loading buffer in HBSS/HEPES is added to the cells and the plates are incubated with lid for 120 minutes at 37°/5% CO2. 10 μL of compound or controls in HBSS/HEPES buffer/5% DMSO from the intermediate dilution plate are carefully added to the wells. […] Finally 10 μL of the agonist AITC 50 μM dissolved in HBSS/HEPES buffer/0.05% DMSO (final concentration 10 μM) is added to the wells followed by an additional read on the FLIPRtetra device for 10 minutes. The area under the signal curve (AUC) after AITC addition is used for IC50/% inhibition calculations
# Data Evaluation and Calculation:
# Each assay microtiter plate contains wells with vehicle (1% DMSO) controls instead of compound as controls for AITC induced luminescence (100% CTL; high controls) and is wells with vehicle controls without AITC as controls for non-specific changes in luminescence (0% CTL; low controls).
# The analysis of the data is performed by the calculation of the area under signal curve of the individual wells. Based on this values the % value for the measurement of each substance concentration is calculated (AUC(sample)−AUC(low))*100/(AUC(high)−AUC(low)) using MegaLab software (in house development). The IC50 values are calculated from the % control values using MegaLab software. Calculation: [y=(ad)/(1+(x/c)^b)+d], a=low value, d=high value; x=conc M; c=IC50 M; b=hill; y=% ctrl
# [1] = Assay B: Microsomal clearance; format: in vitro ADME, human; conditions: pooled liver microsomes 1 mg/ml, test compound 1 μM, 37° C., NADPH; clearance as % of hepatic blood flow
# Procedure: Assay B: Microsomal Clearance:
# The metabolic degradation of the test compound is assayed at 37° C. with pooled liver microsomes. The final incubation volume of 100 μl per time point contains TRIS buffer pH 7.6 at RT (0.1 M), magnesium chloride (5 mM), microsomal protein (1 mg/ml) and the test compound at a final concentration of 1 μM.
# Following a short preincubation period at 37° C., the reactions are initiated by addition of beta-nicotinamide adenine dinucleotide phosphate, reduced form (NADPH, 1 mM) and terminated by transferring an aliquot into solvent after different time points (0, 5, 15, 30, 60 min). Additionally, the NADPH-independent degradation is monitored in incubations without NADPH, terminated at the last time point. The [%] remaining test compound after NADPH independent incubation is reflected by the parameter c (control) (metabolic stability). The quenched incubations are pelleted by centrifugation (10000 g, 5 min).
# An aliquot of the supernatant is assayed by LC-MS/MS for the amount of parent compound. The half-life (t½ INVITRO) is determined by the slope of the semilogarithmic plot of the concentration-time profile.
# The intrinsic clearance (CL_[…]) is calculated by considering the amount of protein in the incubation: CL_[…] [μl/min/mg protein]=(Ln 2/(half-life [min]*protein content [mg/ml]))*1000 CL_[…]_INVIVO [ml/min/kg]=(CL_[…] [μL/min/mg protein]×MPPGL [mg protein/g liver]×liver factor [g/kg bodyweight])/1000 Qh [%]=CL [ml/min/kg]/hepatic blood flow [ml/min/kg])
# (§1) Hepatocellularity, human: 120×10e6 cells/g liver
# (§2) Liver factor, human: 25.7 g/kg bodyweight
# (§3) Blood flow, human: 21 ml/(min×kg)
# [2] = Assay C: Hepatocyte clearance; format: in vitro ADME, human; conditions: cryopreserved hepatocyte suspension, test compound 1 μM, up to 6 h; predicted clearance as % of hepatic blood flow
# Procedure: Assay C: Hepatocyte Clearance
# The metabolic degradation of the test compound is assayed in a hepatocyte suspension. Hepatocytes (cryopreserved) are incubated in Dulbecco's modified eagle medium (supplemented with 3.5 μg glucagon/500 mL, 2.5 mg insulin/500 mL and 3.75 mg/500 mL hydrocortison) containing 5% or 50% species serum.
# The cells are incubated for six hours (incubator, orbital shaker) and samples (25 μl) are taken at 0, 0.5, 1, 2, 4 and 6 hours. Samples are transferred into acetonitrile and pelleted by centrifugation (5 min). The supernatant is transferred to a new 96-deepwell plate, evaporated under nitrogen and resuspended.
# Decline of parent compound is analyzed by HPLC-MS/MS
# CLint is calculated as follows CL_[…]=Dose/AUC=(CO/CD)/(AUD+clast/k)×1000/60. CO: initial concentration in the incubation [P M], CD: cell density of vital cells [10e6 cells/mL], AUD: area under the data [μM×h], clast: concentration of last data point [μM], k: slope of the regression line for parent decline [h−1].
# The calculated in vitro hepatic intrinsic clearance can be scaled up to the intrinsic in vivo hepatic Clearance and used to predict hepatic in vivo blood clearance (CL) by the use of a liver model (well stirred model). CL_[…]_INVIVO [ml/min/kg]=(CL_[…] [μL/min/10e6 cells]×hepatocellularity [10e6 cells/g liver]×liver factor [g/kg bodyweight])/1000 CL [ml/min/kg]=CL_[…]_INVIVO [ml/min/kg]×hepatic blood flow [ml/min/kg]/(CL_[…]_INVIVO [ml/min/kg]+hepatic blood flow [ml/min/kg]) Qh [%]=CL [ml/min/kg]/hepatic blood flow [ml/min/kg])
# as §1, §2, §3
# T1 sequence (O75762 whole entry): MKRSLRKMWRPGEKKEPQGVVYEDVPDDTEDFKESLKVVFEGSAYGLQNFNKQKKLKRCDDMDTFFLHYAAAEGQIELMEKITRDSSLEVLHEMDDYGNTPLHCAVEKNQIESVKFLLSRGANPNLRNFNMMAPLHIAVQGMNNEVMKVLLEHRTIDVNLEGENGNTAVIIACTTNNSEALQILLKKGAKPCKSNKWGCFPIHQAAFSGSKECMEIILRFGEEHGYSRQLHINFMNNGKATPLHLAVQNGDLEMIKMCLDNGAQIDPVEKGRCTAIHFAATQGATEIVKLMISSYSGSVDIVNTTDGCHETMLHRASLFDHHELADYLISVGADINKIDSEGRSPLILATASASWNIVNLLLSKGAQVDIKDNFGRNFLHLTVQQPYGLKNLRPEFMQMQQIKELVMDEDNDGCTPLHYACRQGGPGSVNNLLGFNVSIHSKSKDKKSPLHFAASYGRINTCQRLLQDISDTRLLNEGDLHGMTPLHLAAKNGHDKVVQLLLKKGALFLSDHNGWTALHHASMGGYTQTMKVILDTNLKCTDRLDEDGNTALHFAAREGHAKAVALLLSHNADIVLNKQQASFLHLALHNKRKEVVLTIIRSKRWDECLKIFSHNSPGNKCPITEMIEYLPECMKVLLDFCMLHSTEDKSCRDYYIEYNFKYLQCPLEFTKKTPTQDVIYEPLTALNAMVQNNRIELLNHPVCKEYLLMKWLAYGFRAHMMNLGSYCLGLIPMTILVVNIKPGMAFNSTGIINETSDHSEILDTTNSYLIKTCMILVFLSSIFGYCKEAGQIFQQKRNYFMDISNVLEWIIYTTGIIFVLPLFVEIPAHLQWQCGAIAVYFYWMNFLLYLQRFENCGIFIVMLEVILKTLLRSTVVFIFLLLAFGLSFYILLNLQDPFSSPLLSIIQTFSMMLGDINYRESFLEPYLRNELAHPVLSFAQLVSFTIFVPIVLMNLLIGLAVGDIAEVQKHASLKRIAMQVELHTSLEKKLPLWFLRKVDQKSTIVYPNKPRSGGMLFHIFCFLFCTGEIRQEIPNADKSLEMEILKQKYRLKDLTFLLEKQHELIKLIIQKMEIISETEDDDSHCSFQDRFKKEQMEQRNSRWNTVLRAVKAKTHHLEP
SMILES,IC50 (human TRPA1 ion channel) [nM],human LM [% Qh] [1] [% Qh],human Hepatocytes [% Qh] [2] [% Qh]
"CN1C(=O)COc2ncn(Cc3nnn(C[C@H](O)c4ccc(Cl)cc4)n3)c(=O)c21 [Example 1, 3-({2-[(2R)-2-(4-chlorophenyl)-2-hydroxyethyl]-2H-1,2,3,4-tetrazol-5-yl}methyl)-5-methyl-3H,4H,5H,6H,7H-pyrimido[4,5-b][1,4]oxazine-4,6-dione]",53,<23,7
CN1C(=O)COc2ncn(Cc3nnn(C[C@H](O)c4cc5ccc(F)cc5s4)n3)c(=O)c21 [Example 2],15,<23,16
CN1C(=O)COc2ncn(Cc3nnn(C[C@H](O)c4cc5ccccc5s4)n3)c(=O)c21 [Example 3],23,<23,18
CN1C(=O)COc2ncn(Cc3nnn(C[C@H](O)c4cc5cc(Cl)ccc5o4)n3)c(=O)c21 [Example 4],32,<23,31
CN1C(=O)COc2ncn(Cc3nnn(C[C@H](O)c4cc5cc(F)ccc5o4)n3)c(=O)c21 [Example 6],45,<23,13
CN1C(=O)COc2ncn(Cc3nnn(C[C@H](O)c4ccc(Br)cc4)n3)c(=O)c21 [Example 8],62,<23,11
CN1C(=O)COc2ncn(Cc3nnn(C[C@H](O)c4cc5cc(Cl)c(F)cc5o4)n3)c(=O)c21 [Example 11],81,34,29
CN1C(=O)COc2ncn(Cc3nnn(C[C@H](O)c4cc5ccccc5o4)n3)c(=O)c21 [Example 12],115,<23,8
CN1C(=O)COc2ncn(Cc3nnn(C[C@H](O)c4cc5cc(F)c(Cl)cc5o4)n3)c(=O)c21 [Example 15],227,26,29
COc1ccc([C@@H](O)Cn2nnc(Cn3cnc4c(c3=O)N(C)C(=O)CO4)n2)cc1 [Example 17],248,<23,13
CN1C(=O)COc2ncn(Cc3nnn(C[C@H](O)c4cc5cccc(F)c5o4)n3)c(=O)c21 [Example 18],153,<23,8
CN1C(=O)COc2ncn(Cc3nnn(C[C@H](O)c4ccc5cc(C#N)oc5c4)n3)c(=O)c21 [Example 19],214,<23,19
CN1C(=O)CSc2ncn(Cc3nnn(C[C@H](O)c4ccc(Cl)cc4)n3)c(=O)c21 [Example 21],155,<23,6
CN1C(=O)C(F)(F)Oc2ncn(Cc3nnn(C[C@H](O)c4ccc(Cl)cc4)n3)c(=O)c21 [Example 22],74,35,12
C[C@H]1Oc2ncn(Cc3nnn(C[C@H](O)c4ccc(Cl)cc4)n3)c(=O)c2N(C)C1=O [Example 23],52,25,36

# The next lines start with the values.
IC50 (human TRPA1 ion channel) [nM],human LM [% Qh] [1] [% Qh],human Hepatocytes [% Qh] [2] [% Qh],SMILES
39,<23,29,CN1C(=O)COc2ncn(Cc3nnn(C[C@H](O)c4cc(Cl)c(Cl)s4)n3)c(=O)c21 [Example 5]
60,<23,21,CN1C(=O)COc2ncn(Cc3nnn(C[C@H](O)c4cc5cc(F)c(F)cc5o4)n3)c(=O)c21 [Example 7]
73,<23,5,Cc1ccc([C@@H](O)Cn2nnc(Cn3cnc4c(c3=O)N(C)C(=O)CO4)n2)cc1 [Example 9]
80,<23,<4,CN1C(=O)COc2ncn(Cc3nnn(C[C@H](O)c4ccc(Cl)s4)n3)c(=O)c21 [Example 10]
145,<23,10,CN1C(=O)COc2ncn(Cc3nnn(C[C@H](O)c4cc5ccc(F)cc5o4)n3)c(=O)c21 [Example 13]
191,<23,5,CN1C(=O)COc2ncn(Cc3nnn(C[C@H](O)c4ccc5c(c4)OCO5)n3)c(=O)c21 [Example 14]
237,<23,<4,CN1C(=O)COc2ncn(Cc3nnn(C[C@H](O)c4ccc(C#N)s4)n3)c(=O)c21 [Example 16]
140,<23,<4,CN1C(=O)CCc2ncn(Cc3nnn(C[C@H](O)c4ccc(Cl)cc4)n3)c(=O)c21 [Example 20]
100,<23,16,C[C@@H]1Oc2ncn(Cc3nnn(C[C@H](O)c4ccc(Cl)cc4)n3)c(=O)c2N(C)C1=O [Example 24]
